# Reference: patent EP0592600B1, “PROTEINS S POLYPEPTIDES AND USES THEREOF” (THE SCRIPPS RESEARCH INSTITUTE, priority 1991, dated 1993)
# Ends that are not written are not given here. Peptide text beside a SMILES is read from it.
# T1: PS:C4BP complex (Homo sapiens, UniProt P04003+P20851)
# T1 construct: Purified human C4BP was obtained from 5 liters (1) of human citrated plasma; from tissue; host or cells: human citrated plasma (C4BP); protein S per Schwarz et al
# T1 sequence (P04003 49-597): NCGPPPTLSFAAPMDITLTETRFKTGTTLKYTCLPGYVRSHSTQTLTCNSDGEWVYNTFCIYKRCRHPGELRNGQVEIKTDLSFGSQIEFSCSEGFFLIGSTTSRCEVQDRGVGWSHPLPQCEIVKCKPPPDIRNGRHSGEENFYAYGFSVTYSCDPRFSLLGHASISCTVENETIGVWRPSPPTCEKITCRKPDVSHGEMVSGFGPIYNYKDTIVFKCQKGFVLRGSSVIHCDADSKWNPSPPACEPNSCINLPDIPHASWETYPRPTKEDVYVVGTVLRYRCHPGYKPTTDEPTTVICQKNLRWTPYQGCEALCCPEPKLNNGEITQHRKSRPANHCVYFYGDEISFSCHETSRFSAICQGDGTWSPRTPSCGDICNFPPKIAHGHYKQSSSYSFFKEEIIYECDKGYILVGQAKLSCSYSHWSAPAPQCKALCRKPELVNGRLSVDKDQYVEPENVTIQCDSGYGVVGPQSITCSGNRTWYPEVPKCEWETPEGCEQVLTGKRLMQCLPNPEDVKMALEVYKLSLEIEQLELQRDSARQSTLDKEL
# T1 sequence (P20851 18-252): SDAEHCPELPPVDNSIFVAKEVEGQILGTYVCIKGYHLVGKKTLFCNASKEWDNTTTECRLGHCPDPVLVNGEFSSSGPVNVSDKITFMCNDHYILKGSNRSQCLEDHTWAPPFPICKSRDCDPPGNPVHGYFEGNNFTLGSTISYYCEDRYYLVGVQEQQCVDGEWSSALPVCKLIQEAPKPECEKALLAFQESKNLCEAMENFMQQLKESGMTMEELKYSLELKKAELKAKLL
# T2: C4b binding protein (human, UniProt P04003 49-597; P20851 18-252)
# T2 construct: mature; The beta chain is added from general knowledge; Biotinylated (b-C4BP) in some assays; also called C4BP; purified human C4BP
# T2 sequence (looked up) 1: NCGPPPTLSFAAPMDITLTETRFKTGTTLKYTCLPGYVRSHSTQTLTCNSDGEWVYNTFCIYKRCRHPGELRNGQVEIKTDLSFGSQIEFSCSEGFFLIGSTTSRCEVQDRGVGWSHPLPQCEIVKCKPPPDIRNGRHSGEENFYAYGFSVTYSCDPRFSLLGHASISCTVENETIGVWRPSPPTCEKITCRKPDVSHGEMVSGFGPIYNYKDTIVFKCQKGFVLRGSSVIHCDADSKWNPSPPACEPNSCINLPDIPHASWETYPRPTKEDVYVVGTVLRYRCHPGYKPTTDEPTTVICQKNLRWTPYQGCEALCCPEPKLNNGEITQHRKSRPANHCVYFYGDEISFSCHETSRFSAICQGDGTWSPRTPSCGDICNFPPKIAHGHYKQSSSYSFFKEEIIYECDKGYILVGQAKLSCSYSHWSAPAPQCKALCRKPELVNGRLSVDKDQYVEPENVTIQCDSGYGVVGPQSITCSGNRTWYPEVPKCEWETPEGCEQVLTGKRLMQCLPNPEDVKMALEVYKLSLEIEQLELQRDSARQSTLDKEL
# T2 sequence (looked up) 2: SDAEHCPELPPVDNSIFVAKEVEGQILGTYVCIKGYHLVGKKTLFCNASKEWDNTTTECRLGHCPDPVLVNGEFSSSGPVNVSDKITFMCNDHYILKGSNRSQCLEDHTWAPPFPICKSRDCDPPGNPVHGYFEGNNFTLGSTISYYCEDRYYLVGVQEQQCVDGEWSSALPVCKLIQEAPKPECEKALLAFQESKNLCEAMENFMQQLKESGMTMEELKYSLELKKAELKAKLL
# Legend:
# PS:C4BP complex [1] = target: T1, PS:C4BP complex; experiment: Peptide Inhibition Assay: binding of b-PS to C4BP in solid phase; settings: peptide concentration of 800 µM; read-out: percent inhibition of PS:C4BP complex formation
# Experimental: Each of the peptides produced as described in Example 1 and listed in Table 1 was analyzed for its ability to inhibit the binding of native protein S in liquid-phase to C4BP in solid-phase.
# Microtiter wells of a 96 well plate were coated with 50 µl of 10 µg/ml purified C4BP in carbonate buffer (0.02 M Na2CO3, pH 9.0, 0.02% Na-Azide). After blocking with 10% BSA in TBS, 50 µl of different concentrations of peptides diluted in washing buffer (TBS, 0.2% BSA, 5mM CaCl, 0.02% Tween 20) were separately admixed to C4BP-coated wells. After 2 hours at room temperature, 50 µl of a solution of biotinylated protein S, were admixed to each well to form a second binding admixture having a final concentration of 2 µg/ml. The plate was agitated and the samples were incubated 1 hour at room temperature. The samples were discarded and the wells were washed 3 times with washing buffer. To each well, 50 µl of strepavidin-alkaline-phosphatase (1 µg/ml washing buffer) were admixed and allowed to incubate for 30 minutes at room temperature. The strepavidin-alkaline-phosphatase was then discarded and the wells were washed 6 times with washing buffer. The resulting optical densities of the reaction solutions were read as described before in Example 2C.
# Results of the assay are reported as percent inhibition of C4BP binding. Percent of inhibition of C4BP binding is defined as: I = 100% - 100 x (deltaT /deltaC ) [formula] • where I is expressed as a percent; and • where 100% = delta/min of the amount of b-PS which specifically bound to C4BP-coated wells in the absence of any competing PS-peptide; and • where deltaT = the change in absorbance (405 nm) in the presence of competing PS-peptide; and • where deltaC = the change in absorbance (405 nm) in the absence of competing PS-peptide.
# PS:C4BP complex [2] = target: T1, PS:C4BP complex; experiment: Peptide inhibition of binding of b-C4BP to PS-coated wells; settings: b-C4BP 1 µg/ml, PS-coated wells, peptide 0 - 500 µM; for IC90: read-out: IC90; for IC50: read-out: half-maximal inhibitory concentration (IC50)
# Experimental: An alternative approach was used to test the ability of the peptides, PSP-loop and PSP-428K, in comparison with that seen with the PSP-12 peptide, in inhibiting the binding of C4BP to PS. For this assay, the microtiter wells were coated with purified PS diluted to a concentration of 10 µg/ml in carbonate-coating buffer as described above. The wells were maintained to allow the PS to bind to the well walls. After the maintenance period, the wells were blocked also as described above. The selected PSP peptides were separately admixed at various concentrations ranging from 0 - 500 µM with biotinylated-C4BP (b-C4BP) at a concentration of 1 µg/ml. The admixtures were maintained on a fluid phase plate for 2 hours at room temperature to form peptide-C4BP complexes.
# Fifty µl of the complexed admixtures were separately admixed to the prepared C4BP-coated wells and maintained for 1 hour at room temperature. Thereafter, the plate was washed and processed for developing as described above.
# PS:C4BP complex [3] = target: T1, PS:C4BP complex; experiment: Fluid-phase peptide inhibition of PS binding to b-C4BP, detected on MAb S-7-coated plates; settings: b-C4BP 0.5 µg/ml, PS 1.0 µg/ml, peptide 0 - 500 µM
# Experimental: An alternative approach was used to test the ability of the peptides, PSP-loop, PSP-424K and PSP-428K, in comparison with that seen with the PSP-12 peptide, in inhibiting the binding of PS to C4BP, the result of which was detected on monoclonal antibody-coated plates. For this assay, biotinylated-C4BP (b-C4BP), PS and PSP peptides were admixed together at the respective concentrations of 0.5 µg/ml, 1.0 µg/ml and at a range of 0 - 500 µM (V:V:V). The admixtures were maintained for 2 hours at room temperature on a fluid phase plate to allow the binding and/or inhibition thereof of PS to C4BP by the PS-derived peptides. After the maintenance period, 50 µl of the admixture were separately admixed to wells previously coated with 10 µg/ml of MAb S-7 (ATCC No. HB 80819). The admixtures were maintained for 1 hour at room temperature to allow for the binding of C4BP to MAb S-7-antibody-coated plates. The binding of biotinylated complexes to the antibody-coated plates was detected as described in Example 5Aii.
# C4b binding protein [4] = target: T2, C4b binding protein; experiment: Competition ELISA, peptide preincubated with b-C4BP, PS-coated wells
# C4b binding protein [5] = target: T2, C4b binding protein; experiment: Competition ELISA, peptide 800 µM on coated C4BP, then b-PS
% inhibition of PS:C4BP complex formation (C4b binding protein [5]) [%],Molecule,inhibition at 800 µM (PS:C4BP complex [1]) [%],also measured
,CC[C@H](C)[C@H](NC(=O)CNC(=O)[C@@H](N)CO)C(=O)N[C@@H](CCCCN)C(=O)N[C@@H](CCC(=O)O)C(=O)N[C@H](C(=O)N[C@H](C(=O)N[C@@H](CCC(N)=O)C(=O)N[C@@H](CCC(=O)O)C(=O)N[C@@H](CCCCN)C(=O)N[C@@H](CCC(N)=O)C(=O)N[C@@H](CC(N)=O)C(=O)N[C@@H](CCCCN)C(=O)N[C@@H](Cc1c[nH]cn1)C(=O)N[C@@H](CS)C(N)=O)[C@@H](C)CC)[C@@H](C)CC [PSP-12] (H-SGIKEIIQEKQNKHC-NH2; N-terminus assumed),80,IC90 (PS:C4BP complex [2]): ~250 µM; IC50 (PS:C4BP complex [2]): ~50 µM; IC50 (PS:C4BP complex [3]): ~50 µM; IC90 (PS:C4BP complex [3]; read-out: IC90): ~250 µM
,"CC[C@H](C)[C@H](NC(=O)[C@H](CCC(=O)O)NC(=O)[C@@H](N)CCCCN)C(=O)N[C@H](C(=O)N[C@@H](CCC(N)=O)C(=O)N[C@@H](CCC(=O)O)C(=O)N[C@@H](CCCCN)C(=O)N[C@@H](CCC(N)=O)C(=O)N[C@@H](CC(N)=O)C(=O)N[C@@H](CCCCN)C(=O)N[C@@H](Cc1c[nH]cn1)C(=O)N[C@@H](CO)C(N)=O)[C@@H](C)CC [PSP-428*, KEIIQEKQNKHS] (H-KEIIQEKQNKHS-NH2)",~60,
,NCCCC[C@H](NC(=O)[C@H](CC(N)=O)NC(=O)[C@H](CCC(N)=O)NC(=O)[C@H](CCCCN)NC(=O)[C@H](CCC(=O)O)NC(=O)[C@@H](N)CCC(N)=O)C(=O)N[C@@H](Cc1c[nH]cn1)C(=O)N[C@@H](CO)C(N)=O [PSP-430*] (H-QEKQNKHS-NH2),~80,
,"CC[C@H](C)[C@H](NC(=O)CN)C(=O)N[C@@H](CCCCN)C(=O)N[C@@H](CCC(=O)O)C(=O)N[C@H](C(=O)N[C@H](C(=O)N[C@@H](CCC(N)=O)C(N)=O)[C@@H](C)CC)[C@@H](C)CC [PSP-424, GIKEIIQ] (H-GIKEIIQ-NH2)",40,
,CC[C@H](C)[C@H](NC(=O)CNC(=O)[C@H](CO)NC(=O)[C@H](C)NC(=O)CNC(=O)[C@@H](N)CCC(N)=O)C(=O)N[C@@H](CCCCN)C(=O)N[C@@H](CCC(=O)O)C(N)=O [PSP-417A] (H-QGASGIKE-NH2),~80,
,CC[C@H](C)[C@H](NC(=O)CNC(=O)[C@H](CO)NC(=O)[C@H](C)NC(=O)CNC(=O)[C@H](CCC(N)=O)NC(=O)[C@H](CCCCN)NC(=O)[C@H](CCSC)NC(=O)[C@H](CC(C)C)NC(=O)[C@@H](N)CC(N)=O)C(N)=O [PSP-417] (H-NLMKQGASGI-NH2),~60,
,CC[C@H](C)[C@H](NC(=O)CNC(=O)[C@H](CO)NC(=O)[C@H](C)NC(=O)CNC(=O)[C@H](CCC(N)=O)NC(=O)[C@H](CCCCN)NC(=O)[C@H](CCSC)NC(=O)[C@H](CC(C)C)NC(=O)[C@@H](N)CC(N)=O)C(=O)N[C@@H](CCCCN)C(=O)N[C@@H](CCC(=O)O)C(N)=O [PSP-417P] (H-NLMKQGASGIKE-NH2),~60,
,"CC[C@H](C)[C@H](NC(=O)CNC(=O)[C@@H](N)CO)C(=O)N[C@@H](CCCCN)C(=O)N[C@@H](CCC(=O)O)C(=O)N[C@H](C(=O)N[C@H](C(=O)N[C@@H](CCC(N)=O)C(=O)N[C@@H](CCCCN)C(=O)N[C@@H](CCCCN)C(=O)N[C@@H](CCC(N)=O)C(=O)N[C@@H](CC(N)=O)C(=O)N[C@@H](CCCCN)C(=O)N[C@@H](CS)C(N)=O)[C@@H](C)CC)[C@@H](C)CC [PSP-428K, SGIKEIIQKKQNKC] (H-SGIKEIIQKKQNKC-NH2)",,IC90 (PS:C4BP complex [2]): ~250 µM; IC50 (PS:C4BP complex [2]): ~50 µM
,"SGIKEIIQKKQNKC-NH2 (protein S 420-432,434 with a substitution) [PSP-428K*]",,IC90 (C4b binding protein [4]): ~250 µM
60,NLMKQGASGIKE-NH2 [PSP-417P],,
80,QGASGIKE-NH2 [PSP-417A],,
40,GIKEIIQ-NH2 [PSP-424],,
80,QEKQNKHS-NH2 [PSP-430*],,
60,KEIIQEKQNKHS-NH2 [PSP-428*],,
,"SGIKEIIQEKQNKHC-NH2 (also: biotinylated form b-PSP-12 also used, also called b-PSP-12 (biotinylated)) [PSP-12]",,IC50 (C4b binding protein [4]): ~50 µM; IC90 (C4b binding protein [4]): ~250 µM
60,NLMKQGASGI-NH2 [PSP-417],,
